Patent US20240082234A1, “APPLICATION OF CILOSTAZOL-CONTAINING COMPOSITION IN PREPARING DRUG FOR TREATING CEREBROVASCULAR DISEASE” (NEURODAWN PHARMACEUTICAL CO., LTD., priority 2021, published 2024)

Legend:
[1] = system: mice with focal cerebral ischemia-reperfusion injury; assay: mouse focal cerebral ischemia-reperfusion model (internal carotid artery suture method), area of cerebral infarction by TTC staining; assay type: in vivo, C57BL/6J mice; settings: summary; intravenous; cilostazol 10-19.46 mg/kg, (+)-2-borneol 0.54-10 mg/kg
Method: The animals were subjected to evaluation of neurological deficit symptoms and then sacrificed with CO2. The brain was taken out by cutting off head. The olfactory bulb, cerebellum and lower brainstem were removed. The blood on the surface of the brain was washed with normal saline, and the residual water on the surface was removed. The brain was placed at −20° C. for 20 min, then taken out, immediately cut to a coronal section vertically downward at the crossing plane of the line of sight, and sliced backward every 2 mm. The brain slices were incubated in 1% TTC staining solution (at 37° C. for 30 min). The normal brain tissue was stained into dark red, and the ischemic brain tissue was stained into pale white. After being washed with normal saline, the brain slices were quickly arranged in a row from front to back, removed off the residual water on the surface, and photographed. Calculation of area of cerebral infarction: The photos were processed by Image J software, and the corresponding area of left brain and non-infarction area of right brain were calculated according to the formula, so that the percentage of the area of infarction was calculated. The experimental animals were divided into 4 groups, a model group and three groups of compositions of cilostazol/(+)-2-borneol (respectively a group of cilostazol 10 mg/kg+(+)-2-borneol 10 mg/kg in 1:1: a group of cilostazol 15 mg/kg+(+)-2-borneol 5 mg/kg in 3:1; a group of cilostazol 18 mg/kg+(+)-2-borneol 2 mg/kg in 9:1, and each composition was administered at a total amount of 20 mg/kg). After the cerebral ischemia model was established, the animals were assigned to each group in a single-blind manner with equal probability. After reperfusion, the animals were immediately administered intravenously with the drugs once. The animals in the model group were administered with an equal volume of normal saline. The animals were sacrificed 24 hours after cerebral ischemia, and their brains were taken out, stained, and photographed for determining the area of cerebral infarction. Establishment of focal cerebral ischemia-reperfusion model: The mouse focal cerebral ischemia-reperfusion model was established by internal carotid artery suture method. An anesthetized mouse was fixed on an operating table in a supine position. The neck of the mice was cut at the midline, and the subcutaneous tissue was bluntly separated. The right common carotid artery, external carotid artery, and internal carotid artery were separated. […]

[2] = system: rats with focal cerebral ischemia-reperfusion injury; assay: rat focal cerebral ischemia-reperfusion model (internal carotid artery suture method), area of cerebral infarction by TTC staining; assay type: in vivo, Sprague-Dawley (SD) rats; settings: for Area of cerebral infarction (%): single i.v. dose after reperfusion, 24 h after ischemia, (+)-2-borneol 1 mg/kg; for area of cerebral infarction of MCAO rats (in words) / neurological deficits of MCAO rats (in words): summary, tail vein, cilostazol 1-18 mg/kg, (+)-2-borneol 0.27-5 mg/kg
Method: After the cerebral ischemia model was established, the animals were assigned to each group in a single-blind manner with equal probability. After reperfusion, the animals were immediately administered intravenously with the drugs once. The animals in the model group were administered with an equal volume of normal saline. The animals were sacrificed 24 hours after cerebral ischemia, and their brains were taken out, stained, and photographed for determining the area of cerebral infarction. The rat focal cerebral ischemia-reperfusion model was established by internal carotid artery suture method. The limbs (hind limbs above the knee joint and forelimbs below the wrist joint) and head of an anesthetized rat were tightened with rubber bands. The animal was fixed on an operating table in supine position, and was shaved with an animal shaver from the head to the chest, and the skin was disinfected with alcohol. The neck of the rat was cut at the midline, and the subcutaneous tissue was bluntly separated. The thin layer of fascia on the surface of the anterior triangle of the neck was separated, the lower side-lower edge of the clavicular hyoid muscle was pulled up, and the longitudinally pulsating artery parallel to this muscle can be seen. The arterial shell was opened, and the bifurcation of the right carotid artery was exposed. The right common carotid artery, external carotid artery and internal carotid artery were separated. The vagus nerve was gently stripped, and the external carotid artery was ligated and cut. The proximal end of the common carotid artery was clamped. An incision was made at the distal end from the ligature of the external carotid artery, and was inserted with a suture line, which was passed through the bifurcation of the common carotid artery into the internal carotid artery, and then was inserted slowly until reaching slight resistance (approximately 20 mm from the bifurcation), so as to block all blood supply to the middle cerebral artery. The suture line was slightly fixed below the incision of the external carotid artery with silk thread. The silk thread clamping the proximal end of the common carotid artery was loosened. A gauze soaked in sterile saline was covered on the wound, and the rat was placed on a heat preservation pad to keep warm. 2.0 h after cerebral ischemia on the right side, the suture line was pulled out gently to restore the blood supply for reperfusion. The external carotid artery was ligated with silk thread fixing the suture line. The skin was stitched, and disinfected. The rats were placed in clean feed, and their general condition and respiration were observed until they woke up from anesthesia. The rats were provided with food and water, and commonly reared. The animals were subjected to evaluation of neurological deficit symptoms and then sacrificed with CO2. The brain was taken out by cutting off head. The olfactory bulb, cerebellum and lower brainstem were removed. The blood on the surface of the brain was washed with normal saline, and the residual water on the surface was removed. The brain was placed at -20° C. for 20 min, then taken out, immediately cut to a coronal section vertically downward at the crossing plane of the line of sight, and sliced backward every 2 mm. The brain slices were incubated in 1% TTC staining solution (at 37° C. for 30 min). The normal brain tissue was stained into dark red, and the ischemic brain tissue was stained into pale white. After being washed with normal saline, the brain slices were quickly arranged in a row from front to back, removed off the residual water on the surface, and photographed. Calculation of area of cerebral infarction: The photos were processed by Image J software, and the corresponding area of left brain and non-infarction area of right brain were calculated according to the formula, so that the percentage of the area of infarction was calculated. […]

[3] = system: plasma protein; settings: background statement; cited from earlier work
[4] = Example 1, cilostazol 1 mg/kg (p=0.06), (+)-2-borneol 1 mg/kg (p<0.01), composition 1+1 mg/kg (p<0.001), vs model group
[5] = Example 1, cilostazol 1 mg/kg, composition 2 mg/kg (1+1), model group 39.73 ± 7.62
[6] = Example 2, cilostazol 9 mg/kg (p=0.024), (+)-2-borneol 1 mg/kg (p=0.017), composition 9+1 mg/kg (p=0.000)
[7] = Example 2, cilostazol 9 mg/kg, composition 10 mg/kg (9+1), model group 38.25 ± 7.87
[8] = Example 3, cilostazol 18 mg/kg (p=0.001), (+)-2-borneol 1 mg/kg (p=0.002), composition 18+1 mg/kg (p=0.000)
[9] = Example 3, cilostazol 18 mg/kg, composition 19 mg/kg (18+1), model group 40.32 ± 7.65

Question: Which results are given for `CC1(C)C2CCC1(C)C(O)C2` (single isomer, unassigned; (+)) [(+)-2-Borneol]?
Answer: area of cerebral infarction in MCAO mice (in words) [1]: reduce the area of cerebral infarction; neurological deficits in MCAO mice (in words) [1]: significantly ameliorate the neurological deficits; effect on the area of cerebral infarction (in words) [2, 4]: significantly reduce the area of cerebral infarction; Area of cerebral infarction (%) [2, 5]: 28.28 ± 8.06 %; effect on the area of cerebral infarction (in words) [2, 6]: significantly reduce the area of cerebral infarction; Area of cerebral infarction (%) [2, 7]: 28.62 ± 9.87 %; effect on the area of cerebral infarction (in words) [2, 8]: significantly reduce the area of cerebral infarction; Area of cerebral infarction (%) [2, 9]: 29.97 ± 7.02 %; area of cerebral infarction of MCAO rats (in words) [2]: reduce the area of cerebral infarction; neurological deficits of MCAO rats (in words) [2]: significantly ameliorate the neurological deficits

Question: For `O=C1CCc2cc(OCCCCc3nnnn3C3CCCCC3)ccc2N1` [Cilostazol], which “area of cerebral infarction in MCAO mice (in words)” value [1] is on record?
Answer: The value was “reduce the area of cerebral infarction”.

Question: What about the “neurological deficits in MCAO mice (in words)” value [1] of the same compound?
Answer: The value was “significantly ameliorate the neurological deficits”.

Question: What about the “effect on the area of cerebral infarction (in words)” value (“effect on the area” below) [2, 4] of the same compound?
Answer: Its value is “tended to alleviate cerebral ischemic injury, but showed no statistical difference”.

Question: What about the “Area of cerebral infarction (%)” value [2, 5] of the same compound?
Answer: Its value is 33.78 ± 5.74%.

Question: What about the “effect on the area” value [2, 6] of the same compound?
Answer: Its value is “significantly reduce the area of cerebral infarction”.

Question: And the “Area of cerebral infarction (%)” value [2, 7]?
Answer: The value was 30.00 ± 8.43 %.

Question: And the “effect on the area” value [2, 8]?
Answer: Its value is “significantly reduce the area of cerebral infarction”.

Question: And the “Area of cerebral infarction (%)” value [2, 9]?
Answer: Its value is 27.84 ± 7.50 %.

Question: And the “area of cerebral infarction of MCAO rats (in words)” value [2]?
Answer: Its value is “reduce the area of cerebral infarction”.

Question: What about the “neurological deficits of MCAO rats (in words)” value [2] of the same compound?
Answer: The value was “significantly ameliorate the neurological deficits”.

Question: What about the “binding rate to plasma protein” value [3] of the same compound?
Answer: Its value is “about 95%”.
